According to article PMC11472313, “Development of Fragment-Based Inhibitors of the Bacterial Deacetylase LpxC with Low Nanomolar Activity” (Journal of Medicinal Chemistry, 2024):

Experiment: microsomal metabolic stability, mouse
Format: in vitro ADME
Settings: for microsomal CLint: mouse liver microsomes; for half-life: mouse, liver microsomes, read-out: microsomal metabolic stability t1/2
Method: Also, the plasma stability of the compounds in mouse plasma was generally low with half-lives between 22.9 min [(S)-13h] and 43.1 min [(S)-13j].
The microsomal metabolic stability assay as well as the plasma protein binding assay were conducted as described previously.[78]
Samples were analyzed using an Agilent 1290 Infinity II HPLC system coupled to an AB Sciex QTrap 6500plus mass spectrometer. LC conditions were as follows: column: Agilent Zorbax Eclipse Plus C18, 50 × 2.1 mm, 1.8 μm; temperature: 30 °C; injection volume: 5 μL per sample; flow rate: 700 μL min^–1. Samples were run under acidic conditions. Solvents: (A) water + 0.1% formic acid; (B) 95% acetonitrile/5% H2O + 0.1% formic acid. Gradient elution: (A %): 0–0.1 min: 99%, 0.1–3.5 min: gradient from 99 to 50%, 3.5–3.8 min: gradient from 50 to 0%, 3.8–4.7 min: gradient from 0 to 99%. Mass transitions for controls and compounds are depicted in Table S3.

O=C(NC[C@H](OCc1ccc(C#Cc2ccc(CN3CCOCC3)cc2)cc1)C(=O)NO)c1c[nH]c2ccccc12 [(S)-13h]
microsomal CLint: < 23 µL/min/mg
half-life: > 60 min

O=C(NC[C@H](OCc1ccc(C#Cc2ccc(CN3CCOCC3)cc2)cc1)C(=O)NO)c1ccc2[nH]ccc2c1 [(S)-13j]
microsomal CLint: < 23 µL/min/mg
half-life: > 60 min

O=C(NC[C@H](OCc1ccc(C#Cc2ccc(CN3CCOCC3)cc2)cc1)C(=O)NO)c1cc[nH]n1 [(S)-13l]
microsomal CLint: 26 µL/min/mg
half-life: ~53 min
